Legend:
CLL cells [1] = assay: Cytotoxicity in presence of cross-linking (annexin V/PI); format: cell-based, human; conditions: for cell death (antibody-mediated apoptosis in the presence of cross-linking): rituximab 10 μg/mL + 50 μg/mL anti-Fc
Experimental: Cells (10^6 cells/mL) were treated with commercially purchased alemtuzumab (anti-CD52; Ilex Pharmaceuticals, San Antonio, Tex.), rituximab (anti-CD20; Genentech, San Francisco, Calif.), or trastuzumab (anti-HER2; Genentech) at a concentration of 10 μg/mL. Goat antihuman IgG cross-linker (Fc specific; Jackson ImmunoResearch Laboratories, West Grove, Pa.) was added to the cell suspension 5 minutes after adding the primary antibodies at a concentration of 50 μg/mL.
In addition, samples with no treatment or crosslinker alone were collected at matched time points. Apoptosis of cells at 24 and 48 hours after treatment was measured by annexin V-fluorescein isothiocyanate/propidium iodide (PI) flow cytometry analysis according to the supplier's instructions (BD Biosciences).
Cytotoxicity results were expressed as percentage of total positive cells over untreated control [% positive cells=(% annexin^+ and/or PI^+ cells of treatment group)−(% annexin^+ and/or PI^+ cells of untreated control)].

CLL cells [2] = assay: ADCC, 4-hour 51Cr-release assay; format: cell-based, human; conditions: using alemtuzumab, data not shown
Experimental: For ADCC experiments, CD56^+ and CD19^+ cells were negatively purified from whole blood obtained from either healthy volunteers or CLL subjects by magnetic-activated cell sorting according to the manufacturer's recommendations (MiniMACS; Miltenyi Biotec, Auburn, Calif.). The purity of enriched populations was always greater than 95% of the total yield as detected by CD19 and CD3 staining.
ADCC activity was determined by standard 4-hour ^51Cr-release assay. ^51Cr-labeled target cells (10^5 CLL cells/mL) were incubated with media alone or in the presence of various antibodies (10 μg/mL) at 37° C. for 30 minutes. Unbound antibody was washed off and the cells plated at 10^4 cells/well. Effector cells (natural killer [NK] cells from healthy donors or CLL subjects) were then added to the plates at indicated effector-to-target (E:T) ratios. After a 4-hour incubation, supernatants were removed and measured using a gamma counter. The percentage of specific cell lysis was determined by the equation: % lysis=100×(ER−SR)/(MR−SR), where ER, SR, and MR represent experimental, spontaneous, and maximum release, respectively. Data were normalized to the untreated control.

Row | Substance | change in alemtuzumab-mediated apoptosis with lenalidomide treatment (CLL cells [1]; lenalidomide 48 hours, cross-linking, same conditions) | change in ADCC, lenalidomide versus untreated cells (CLL cells [2]) | cell death (antibody-mediated apoptosis in the presence of cross-linking) (CLL cells [1]; lenalidomide-treated CLL cells (48 hours), N=10, P<0.017) | cell death (antibody-mediated apoptosis in the presence of cross-linking) (CLL cells [1]; vehicle-treated CLL cells (48 hours), N=10)
1 | alemtuzumab: anti-CD52 antibody; Ilex Pharmaceuticals | No significant change | no significant change |  | 
2 | rituximab: anti-CD20 antibody; Genentech |  |  | 11% ±8% | 25% ±11%

From US20110280913A1, “Methods and Compositions for Delivering Therapeutic Agents in the Treatment of B-Cell Related Disorders” (THE OHIO STATE UNIVERSITY, priority 2008, published 2011)
